From patent publication US5942494A, “Stimulation of gene expression and synthesis of heat shock protein 72/73 (HSP 70)” (The Trustees of Columbia University in the City of New York, priority 1996, dated 1999)
Square brackets hold non-standard residues; d marks the D form. Peptide text beside a SMILES is read from it. Nle = CCCC[C@H](N)C(=O)O

Experiments:
Hsp70 = Hsp70 level in human microvascular endothelial cell line; assay type: cell-based; settings: ALLN 40 μg/ml, 4 hours, 30 min. labeling
Procedure: ALLN induces Hsp70 protein levels in HepG2 cells in a dose-dependent manner. The effect of ALLN on the protein levels of Hsp70 was analysed by denaturing immunoprecipitation of extracts of [^3 H]-leucine radiolabeled HepG2 cells which had been pre-treated with ALLN for 4 hours at different doses. Denaturing immunoprecipitation was chosen because Hsp70 is a major cytosolic chaperone protein and it is co-immunoprecipitated with a number of other proteins under non-denaturingconditions (Beckmann, et al., 1990; Zhou, et al., 1995). […] This may be due to a low constitutive level of expression of Hsp73 (Hsp70) in HepG2 cells similar to that reported for other cell types in the absence of stress (Welch, et al., 1984). Treatment with ALLN was associated with a marked increase in Hsp70 level, which was further confirmed as Hsp72 (the inducible form) by Western blot (data not shown).

albumin = assay: Immunoprecipitation of albumin from radiolabeled HepG2 cells; assay type: cell-based, human; settings: HepG2, ALLN 4 hours
Procedure: (§1) FIGS. 7A-7B: Effects of ALLN on the biosynthesis of other members of Hsp family and related proteins. HepG2 cells were pre-treated and radiolabeled with or without ALLN for 4 hours as described in FIG. 1. Cell lysates were used for SDS-PAGE (A), or for immunoprecipitation with anti-Hsp25, -Hsp27, -Hsp60, -Hsp70, -Hsp86, -Hsp90, -Hsp104, -Bip, or -albumin antibodies respectively (1 μg/ml) (B). Because the anti-Hsp25, -Hsp27, -Hsp60 and Hsp90 antibodies are from a rat source, rabbit anti-rat IgG antibody was added after the first incubation, and the incubation was extended for another 1 hour at 4° C. before collection with protein A-Sepharose.Immunoprecipitates were loaded for SDS-PAGE and aliquoted for scintillation counting and plotting. Each value was presented as mean ±S.D. from three individual culture dishes.
(§2) HepG2 cells were preincubated for 4 hours in serum-free MEM and then radiolabeled with ^3 H-Leucine (150 μCi/ml) in a serum-free, leucine-free medium. […] Cell lysates containing equal amounts of trichloroacetic acid (TCA)-insoluble radioactivity were used for immunoprecipitations by incubating with individual monoclonal antibody (1 μg/ml) for 2.5 hours at 4° C. […]

Bip = assay: Immunoprecipitation of Bip from radiolabeled HepG2 cells; assay type: cell-based, human; settings: HepG2, ALLN 4 hours
Procedure: as §1, §2

calpain = settings: Rock, et al., 1994; cited from earlier work
proteasomes = settings: Rock, et al., 1994; cited from earlier work
Hsp90 = assay: Immunoprecipitation of Hsp90 from radiolabeled HepG2 cells; assay type: cell-based, human; settings: HepG2, ALLN 4 hours
Procedure: as §1, §2

[1] = system: human microvascular endothelial cell line; assay: TCA-cpm measurement in human microvascular endothelial cell line; assay type: cell-based; settings: ALLN 40 μg/ml, 4 hours, 30 min. labeling
Hsp104 = assay: Immunoprecipitation of Hsp104 from radiolabeled HepG2 cells; assay type: cell-based, human; settings: HepG2, ALLN 4 hours
Procedure: as §1, §2

With CCCC[C@@H](C=O)NC(=O)[C@H](CC(C)C)NC(=O)[C@H](CC(C)C)NC(C)=O [ALLN, N-acetyl-leucyl-leucyl-norleucinal] (Ac-Leu-Leu-[Nle]-aldehyde) the “Increment of Hsp70 level” value (Hsp70) was 35 fold, the Effect on albumin (albumin) was “no effects” and the “Effect on Bip” value (Bip) was “no effects”. For the same compound, the Activity against calpain (calpain) was “significant activities”, the Inhibition of proteasomes (proteasomes) was “potent inhibitors” and the “Effect on Hsp90” value (Hsp90) was “no effects”. For the same compound, the TCA-cpm measurement [1] was “no change” and the “Effect on Hsp104” value (Hsp104) was “no effects”.
